# Source: patent US20240002391A1, “4-ALKOXYPYRROLO[2,1-F][1,2,4]TRIAZINES AND PREPARATION AND USES THEREOF” (BioSplice Therapeutics, Inc., priority 2022, published 2024)
# Target: recombinant DYRK1A kinase (Homo sapiens (Human), UniProt Q13627)
# Assay: DYRK1A kinase assay (Ser/Thr 18 peptide Z-lyte FRET)
# Format: biochemical
# Details: DYRK1A kinase activity, Z-lyte Ser/Thr 18 peptide, 15 μM ATP; method text calls the value IC50; read-out: EC50 (the source's name)
# Summary of the method: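 Steps: combine 0.25 μg/mL kinase, 15 μM ATP and 4 μM peptide with test compound; incubate 1 h at room temperature; add diluted development reagent for another hour; read coumarin and fluorescein emission at Ex 400. The emission ratio yields percent phosphorylation, from which IC50 is derived.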
row,SMILES,IC50 [nM]
1,"COc1nc(N[C@H]2CC[C@](C)(O)CC2)nn2ccc(-c3ccc4nc(C)nn4c3)c12 [Compound 622, (1r,4r)-4-((4-Methoxy-5-(2-methyl-[1,2,4]triazolo[1,5-a]pyridin-6-yl)pyrrolo[2,1-f][1,2,4]triazin-2-yl)amino)-1-methylcyclohexan-1-ol]",14.1
2,"COc1nc(N[C@H]2CC[C@H](OC)CC2)nn2ccc(-c3ccn4nccc4c3)c12 [Compound 10, 4-Methoxy-N-(trans-4-methoxycyclohexyl)-5-(pyrazolo[1,5-a]pyridin-5-yl)pyrrolo[2,1-f][1,2,4]triazin-2-amine]",93.8
3,"COc1nc(N[C@@H]2CCN(C(C)=O)CC2(F)F)nn2ccc(-c3ccc4nnn(CC(F)F)c4c3)c12 [Compound 788, (R)-1-(4-((5-(1-(2,2-Difluoroethyl)-1H-benzo[d][1,2,3]triazol-6-yl)-4-methoxypyrrolo[2,1-f][1,2,4]triazin-2-yl)amino)-3,3-difluoropiperidin-1-yl)ethan-1-one]",0.7
4,"COc1nc(N[C@@H]2CCN(C)C[C@@H]2F)nn2ccc(-c3ccc4nc(C)n(CC(F)F)c4c3)c12 [Compound 124, 5-(1-(2,2-Difluoroethyl)-2-methyl-1H-benzo[d]imidazol-6-yl)-N-((3S,4R)-3-fluoro-1-methylpiperidin-4-yl)-4-methoxypyrrolo[2,1-f][1,2,4]triazin-2-amine]",2.8
5,"COc1nc(N[C@H]2CC[C@@H](OC)CC2)nn2ccc(-c3ccc4nccn4c3)c12 [Compound 45, 5-(Imidazo[1,2-a]pyridin-6-yl)-4-methoxy-N-(cis-4-methoxycyclohexyl)pyrrolo[2,1-f][1,2,4]triazin-2-amine]",9.3
6,"COc1nc(N[C@@H]2CCN(C(C)=O)CC2(F)F)nn2ccc(-c3cc(F)c4nnn(CC(F)F)c4c3)c12 [Compound 821, (R)-1-(4-((5-(1-(2,2-Difluoroethyl)-4-fluoro-1H-benzo[d][1,2,3]triazol-6-yl)-4-methoxypyrrolo[2,1-f][1,2,4]triazin-2-yl)amino)-3,3-difluoropiperidin-1-yl)ethan-1-one]",1.9
7,"CNC(=O)c1cnc2ccc(-c3ccn4nc(NC5CCC6(CC5)COC6)nc(OC)c34)cn12 [Compound 107, 6-(2-((2-Oxaspiro[3.5]nonan-7-yl)amino)-4-methoxypyrrolo[2,1-f][1,2,4]triazin-5-yl)-N-methylimidazo[1,2-a]pyridine-3-carboxamide]",0.9
8,"COc1nc(NC2CCC3(CC2)CN(C(C)=O)C3)nn2ccc(-c3ccn4nccc4c3)c12 [Compound 40, 1-(7-((4-Methoxy-5-(pyrazolo[1,5-a]pyridin-5-yl)pyrrolo[2,1-f][1,2,4]triazin-2-yl)amino)-2-azaspiro[3.5]nonan-2-yl)ethan-1-one]",1.6
9,"COc1nc(N[C@@H]2CCN(CCO)CC2(F)F)nn2ccc(-c3cc(F)c4nc(C)n(C(C)C)c4c3)c12 [Compound 549, (R)-2-(3,3-Difluoro-4-((5-(4-fluoro-1-isopropyl-2-methyl-1H-benzo[d]imidazol-6-yl)-4-methoxypyrrolo[2,1-f][1,2,4]triazin-2-yl)amino)piperidin-1-yl)ethan-1-ol]",2.6
10,"COc1nc(N[C@H]2CC[C@]3(CCO3)CC2)nn2ccc(-c3cnc4nccn4c3)c12 [Compound 274, 5-(Imidazo[1,2-a]pyrimidin-6-yl)-4-methoxy-N-((4s,7s)-1-oxaspiro[3.5]nonan-7-yl)pyrrolo[2,1-f][1,2,4]triazin-2-amine]",1

# More lines, now with the values ahead:
row,IC50 [nM],SMILES
1,1.2,"[2H]C([2H])([2H])Oc1nc(N[C@H]2C[C@](C)(O)C2)nn2ccc(-c3ccc4nccnc4c3)c12 [Compound 331, trans-3-((4-(Methoxy-d3)-5-(quinoxalin-6-yl)pyrrolo[2,1-f][1,2,4]triazin-2-yl)amino)-1-methylcyclobutan-1-ol]"
2,9960,"COc1nc(NC2CCN(C(C)=O)CC2)nn2ccc(-c3ccn4nccc4c3)c12 [Compound 27, 1-(4-((4-Methoxy-5-(pyrazolo[1,5-a]pyridin-5-yl)pyrrolo[2,1-f][1,2,4]triazin-2-yl)amino)piperidin-1-yl)ethan-1-one]"
3,2.1,"CNC(=O)c1cnc2ccc(-c3ccn4nc(N[C@H]5CC[C@](C)(OC)CC5)nc(OC)c34)cn12 [Compound 445, 6-(4-Methoxy-2-(((1r,4r)-4-methoxy-4-methylcyclohexyl)amino)pyrrolo[2,1-f][1,2,4]triazin-5-yl)-N-methylimidazo[1,2-a]pyridine-3-carboxamide]"
4,3.6,"COc1nc(NC2CC3(CCN(C(C)=O)CC3)C2)nn2ccc(-c3ccc4nnn(C)c4c3)c12 [Compound 227, 1-(2-((4-Methoxy-5-(1-methyl-1H-benzo[d][1,2,3]triazol-6-yl)pyrrolo[2,1-f][1,2,4]triazin-2-yl)amino)-7-azaspiro[3.5]nonan-7-yl)ethan-1-one]"
5,1.4,"CNC(=O)[C@]1(C)C[C@@H](Nc2nc(OC)c3c(-c4ccc5nc(C)n(CC(F)F)c5c4)ccn3n2)C1 [Compound 502, trans-3-((5-(1-(2,2-Difluoroethyl)-2-methyl-1H-benzo[d]imidazol-6-yl)-4-methoxypyrrolo[2,1-f][1,2,4]triazin-2-yl)amino)-N,1-dimethylcyclobutane-1-carboxamide]"
6,2.8,"COc1nc(N[C@H]2C[C@@](C)(N(C)C)C2)nn2ccc(-c3ccc4ncccc4c3)c12 [Compound 1043, cis-N3-(4-Methoxy-5-(quinolin-6-yl)pyrrolo[2,1-f][1,2,4]triazin-2-yl)-N1,N1,1-trimethylcyclobutane-1,3-diamine]"
7,5.9,"COc1nc(N[C@H]2CC[C@](C)(O)CC2)nn2ccc(-c3ccc4nnn(/C=C/F)c4c3)c12 [Compound 672, (1r,4r)-4-((5-(1-((E)-2-fluorovinyl)-1H-benzo[d][1,2,3]triazol-6-yl)-4-methoxypyrrolo[2,1-f][1,2,4]triazin-2-yl)amino)-1-methylcyclohexan-1-ol]"
8,6.6,"COc1nc(N[C@H]2CC[C@@](O)(C(F)(F)F)CC2)nn2ccc(-c3ccc4nccnc4c3)c12 [Compound 349, trans-4-((4-Methoxy-5-(quinoxalin-6-yl)pyrrolo[2,1-f][1,2,4]triazin-2-yl)amino)-1-(trifluoromethyl)cyclohexan-1-ol]"
9,2.8,"CC[C@]1(O)CC[C@H](Nc2nc(OC)c3c(-c4ccc5nnn(CC(F)F)c5c4)ccn3n2)CC1 [Compound 727, (1r,4r)-4-((5-(1-(2,2-Difluoroethyl)-1H-benzo[d][1,2,3]triazol-6-yl)-4-methoxypyrrolo[2,1-f][1,2,4]triazin-2-yl)amino)-1-ethylcyclohexan-1-ol]"
10,4.1,"COc1nc(N[C@H]2C[C@](C)(N)C2)nn2ccc(-c3ccn4nccc4c3)c12 [Compound 94, trans-N1-(4-Methoxy-5-(pyrazolo[1,5-a]pyridin-5-yl)pyrrolo[2,1-f][1,2,4]triazin-2-yl)-3-methylcyclobutane-1,3-diamine]"
11,6.7,"COc1nc(N[C@H]2CC[C@@](C)(O)CC2)nn2ccc(-c3ccc4nccn4c3)c12 [Compound 55, cis-4-((5-(Imidazo[1,2-a]pyridin-6-yl)-4-methoxypyrrolo[2,1-f][1,2,4]triazin-2-yl)amino)-1-methylcyclohexan-1-ol]"
12,1.3,"COCC(=O)N[C@]1(C)C[C@H](Nc2nc(OC)c3c(-c4ccc5nccnc5c4)ccn3n2)C1 [Compound 336, 2-Methoxy-N-(cis-3-((4-methoxy-5-(quinoxalin-6-yl)pyrrolo[2,1-f][1,2,4]triazin-2-yl)amino)-1-methylcyclobutyl)acetamide]"
